The values that follow are results of earlier work, collected in patent US8802627B2, “Fusion protein composed of matrix metalloproteinase-2 inhibitor peptide derived from amyloid-B precursor protein and tissue inhibitor of metalloproteinase-2” (Oriental Yeast Co., Ltd., priority 2008, dated 2014).

The target in data set [1] is MMP-9 (Homo sapiens, UniProt P14780). Particulars: prior art literature, J. Biol. Chem. 278, 14020-14028, 2003; read-out: reported IC50 upon MMP-9.
Data set [2] addresses T1, MMP-2 (Homo sapiens, UniProt P08253).
T1 construct: which now consists of 551 amino acid residues is designated active MMP-2
T1 sequence (P08253 110-660): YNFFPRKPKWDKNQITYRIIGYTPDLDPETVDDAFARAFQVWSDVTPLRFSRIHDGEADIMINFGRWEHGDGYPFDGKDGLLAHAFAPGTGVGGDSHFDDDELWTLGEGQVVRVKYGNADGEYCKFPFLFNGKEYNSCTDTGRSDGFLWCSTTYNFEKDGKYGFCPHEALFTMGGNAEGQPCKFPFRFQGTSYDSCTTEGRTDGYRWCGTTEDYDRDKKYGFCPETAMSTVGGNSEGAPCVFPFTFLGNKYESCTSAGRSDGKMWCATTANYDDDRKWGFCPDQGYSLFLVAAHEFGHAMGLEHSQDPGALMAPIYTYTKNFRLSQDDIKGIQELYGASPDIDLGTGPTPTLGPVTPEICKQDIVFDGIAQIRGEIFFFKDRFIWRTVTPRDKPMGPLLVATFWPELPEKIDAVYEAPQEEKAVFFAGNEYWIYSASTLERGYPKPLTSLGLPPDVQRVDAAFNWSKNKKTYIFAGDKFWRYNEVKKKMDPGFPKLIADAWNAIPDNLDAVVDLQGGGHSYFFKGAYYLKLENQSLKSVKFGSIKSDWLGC
The note with it: prior art literature, J. Biol. Chem. 278, 14020-14028, 2003; read-out: reported IC50 upon MMP-2.

The target of data set [3] is MT1-MMP catalytic domain (Homo sapiens, UniProt P50281). Particulars: prior art literature, J. Biol. Chem. 278, 14020-14028, 2003; read-out: reported IC50 upon MT1-MMP catalytic domain.
Data set [4] addresses T2, MMP-7 (Homo sapiens, UniProt P09237).
T2 sequence (P09237 95-267): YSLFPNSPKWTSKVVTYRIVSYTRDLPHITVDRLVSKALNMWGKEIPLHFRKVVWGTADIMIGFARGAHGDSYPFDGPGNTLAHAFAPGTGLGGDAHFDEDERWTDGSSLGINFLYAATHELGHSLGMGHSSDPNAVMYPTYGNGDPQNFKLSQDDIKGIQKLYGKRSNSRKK
The note with it: prior art literature, J. Biol. Chem. 278, 14020-14028, 2003; read-out: reported IC50 upon MMP-7.

Chain of MMP-9 (P14780 94-707): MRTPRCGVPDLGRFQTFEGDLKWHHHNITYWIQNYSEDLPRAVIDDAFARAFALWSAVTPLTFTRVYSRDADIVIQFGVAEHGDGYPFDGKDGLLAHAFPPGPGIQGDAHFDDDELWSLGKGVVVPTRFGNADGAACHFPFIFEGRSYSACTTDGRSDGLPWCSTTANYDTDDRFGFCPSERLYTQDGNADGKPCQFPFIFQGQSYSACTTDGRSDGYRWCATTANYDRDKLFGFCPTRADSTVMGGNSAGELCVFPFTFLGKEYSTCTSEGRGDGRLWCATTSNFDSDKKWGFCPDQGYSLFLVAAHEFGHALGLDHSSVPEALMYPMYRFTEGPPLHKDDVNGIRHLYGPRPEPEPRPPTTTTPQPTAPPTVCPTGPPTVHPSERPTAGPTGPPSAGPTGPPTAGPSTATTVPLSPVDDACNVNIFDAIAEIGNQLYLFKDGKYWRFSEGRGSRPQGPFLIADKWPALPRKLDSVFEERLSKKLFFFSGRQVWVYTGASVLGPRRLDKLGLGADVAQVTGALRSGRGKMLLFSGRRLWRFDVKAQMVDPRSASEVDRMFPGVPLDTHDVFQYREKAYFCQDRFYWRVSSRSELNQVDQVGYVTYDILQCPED

Usually IC50 stands for the concentration needed to halve the response being measured. With ISYGNDALMP [APP-IP], the IC50 in data set [1] was 20 µM; in data set [2], 30 nM; in data set [3], 2000 nM; in data set [4], 15 µM.
